Results: ChEMBL document CHEMBL5055630, “Design, synthesis and biological evaluation of indole-based [1,2,4]triazolo[4,3-a] pyridine derivatives as novel microtubule polymerization inhibitors” (Eur J Med Chem, 2021)

Key:
Assay type in all cases: functional, cell-based
[1] = tested on: MCF7; assay: Antiproliferative activity against human MCF7 assessed as reduction in cell viability measured after 48 hrs by MTT assay; conditions: MCF7, 48 h
[2] = tested on: A549; assay: Antiproliferative activity against human A549 assessed as reduction in cell viability measured after 48 hrs by MTT assay; conditions: A549, 48 h
[3] = tested on: HCT-116; assay: Antiproliferative activity against human HCT-116 assessed as reduction in cell viability measured after 48 hrs by MTT assay; conditions: HCT-116, 48 h
[4] = tested on: HeLa; assay: Antiproliferative activity against human HeLa assessed as reduction in cell viability measured after 48 hrs by MTT assay

| Compound | IC50 [1] [nM] | IC50 [2] [nM] | IC50 [3] [nM] | IC50 [4] [nM] |
| --- | --- | --- | --- | --- |
| COc1cc(-c2nnc3c(OC4CN(C(C)(C)C)C4)cc(-c4ccc5[nH]ccc5c4)cn23)cc(OC)c1OC | > 10000 | > 10000 | > 10000 | > 10000 |
| CCOc1cc(-c2ccc3ccn(C)c3c2)cn2c(-c3cc(OC)c(OC)c(OC)c3)nnc12 | 239 | 349 | 291 | 240 |
| COc1cc(-c2nnc3c(OC)cc(-c4ccc5[nH]ccc5c4)cn23)cc(OC)c1OC | 80 | 167 | 108 | 85 |
| COc1cc(-c2nnc3c(OC)cc(-c4ccc5[nH]cc(C=O)c5c4)cn23)cc(OC)c1OC | > 10000 | > 10000 | > 10000 | > 10000 |
| COc1cc(-c2nnc3c(OCC(F)(F)F)cc(-c4ccc5c(ccn5C)c4)cn23)cc(OC)c1OC | 382 | 614 | 483 | 199 |
| COc1cc(-c2nnc3c(OC4CCC4)cc(-c4ccc5c(ccn5C)c4)cn23)cc(OC)c1OC | 125 | 176 | 750 | 177 |
| COc1cc(-c2nnc3c(OC4COC4)cc(-c4ccc5[nH]ccc5c4)cn23)cc(OC)c1OC | 2470 | 9810 | 5370 | 2780 |
| COc1cc(-c2cc(OC)c3nnc(-c4ccc5[nH]ccc5c4)n3c2)cc(OC)c1OC | > 10000 | > 10000 | > 10000 | > 10000 |
| CCOc1cc(-c2ccc3c(ccn3C)c2)cn2c(-c3cc(OC)c(OC)c(OC)c3)nnc12 | 140 | 334 | 228 | 210 |
| CCOc1cc(-c2ccc3[nH]ccc3c2)cn2c(-c3cc(OC)c(OC)c(OC)c3)nnc12 | 284 | 589 | 374 | 166 |
| COc1cc(-c2nnc3c(OC(C)C)cc(-c4ccc5c(ccn5C)c4)cn23)cc(OC)c1OC | 204 | 322 | 402 | 503 |
| COc1cc(-c2nnc3c(OC(C)C)cc(-c4ccc5[nH]ccc5c4)cn23)cc(OC)c1OC | 1020 | 1250 | 939 | 261 |
| COc1cc2c(c(OC)c1OC)-c1ccc(OC)c(=O)cc1[C@@H](NC(C)=O)CC2 [COLCHICINE] | 48 | 111 | 83 | 103 |
| CCOc1cc(-c2ccc3c(c2)c2ccccc2n3C)cn2c(-c3cc(OC)c(OC)c(OC)c3)nnc12 | 303 | 901 | 386 | 350 |
| CCOc1cc(-c2ccc3[nH]c4ccccc4c3c2)cn2c(-c3cc(OC)c(OC)c(OC)c3)nnc12 | 295 | 922 | 2420 | 472 |
| C=C(c1cc(OC)c(OC)c(OC)c1)c1ccc2c(c1)c1ccccc1n2C | 5490 | 478 | 1540 | 3970 |
| COc1cc(-c2nnc3c(OC4CCC4)cc(-c4ccc5[nH]ccc5c4)cn23)cc(OC)c1OC | 267 | 232 | 694 | 142 |
| COc1cc(-c2nnc3c(OCC(F)(F)F)cc(-c4ccc5[nH]ccc5c4)cn23)cc(OC)c1OC | 608 | 585 | 900 | 348 |
| COc1cc(-c2cc(OC)c3nnc(-c4ccc5c(ccn5C)c4)n3c2)cc(OC)c1OC | > 10000 | > 10000 | > 10000 | > 10000 |
| CCOc1cc(-c2ccc3cc[nH]c3c2)cn2c(-c3cc(OC)c(OC)c(OC)c3)nnc12 | 334 | 626 | 1340 | 272 |
| CC(=O)O[C@H]1C(=O)[C@@]2(C)[C@H]([C@H](OC(=O)c3ccccc3)[C@]3(O)C[C@H](OC(=O)[C@H](O)[C@@H](NC(=O)c4ccccc4)c4ccccc4)C(C)=C1C3(C)C)[C@]1(OC(C)=O)CO[C@@H]1C[C@@H]2O [PACLITAXEL] |  | 15 | 21 | 8 |
